Values joined by “and” are separate entries in the source; they are usually repeats but may differ in a detail not shown here. Identical values can stand only once. Toxic doses and inconclusive results are not listed. The calls were made as follows: active = survival T/C of 150% or more; inactive = T/C below 125% in these data.
Tested on: P388 leukemia ip, CD2F1 mice, survival T/C
Assay: NCI In Vivo Anticancer Drug Screen. Data for tumor model P388 Leukemia (intraperitoneal) in CD2F1 (CDF1) mice
Conditions: endpoint: median survival time, higher = longer survival
Method in brief: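 Mice carrying the transplanted tumor received test compound or vehicle. Survival was recorded in each group, and the value is the treated-group measurement divided by that of the vehicle-treated control group.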

[1] = dose: 200.0 mg/kg/injection, schedule: Q01DX009 (ip), vehicle: saline with Tween-80
[2] = dose: 60.0 mg/kg/injection, schedule: Q01DX005 (ip), vehicle: Klucel (hydroxypropylcellulose) (HPC)
[3] = dose: 120.0 mg/kg/injection, schedule: Q01DX005 (ip), vehicle: Klucel (hydroxypropylcellulose) (HPC)
[4] = dose: 50.0 mg/kg/injection, schedule: Q01DX005 (ip), vehicle: saline with Tween-80
[5] = dose: 100.0 mg/kg/injection, schedule: Q01DX005 (ip), vehicle: saline with Tween-80
[6] = dose: 100.0 mg/kg/injection, schedule: Q01DX009 (ip), vehicle: saline with Tween-80
[7] = dose: 400.0 mg/kg/injection, schedule: Q01DX009 (ip), vehicle: saline with Tween-80
[8] = dose: 60.0 mg/kg/injection, schedule: Q01DX005 (ip), vehicle: saline with Tween-80
[9] = dose: 120.0 mg/kg/injection, schedule: Q01DX005 (ip), vehicle: saline with Tween-80
[10] = dose: 240.0 mg/kg/injection, schedule: Q01DX005 (ip), vehicle: saline with Tween-80
[11] = dose: 240.0 mg/kg/injection, schedule: Q01DX005 (ip), vehicle: Klucel (hydroxypropylcellulose) (HPC)
[12] = dose: 50.0 mg/kg/injection, schedule: Q01DX009 (ip), vehicle: saline with Tween-80

Measured: T/C

CCCCCn1c(CN2CCCCC2)nc2c1-c1ccccc1C(=O)C2=O
inactive: dose: 50.0 mg/kg/injection, schedule: Q01DX001 (ip), vehicle: saline with Tween-80 100 % of control | dose: 100.0 mg/kg/injection, schedule: Q01DX001 (ip), vehicle: saline with Tween-80 100 % of control | dose: 200.0 mg/kg/injection, schedule: Q01DX001 (ip), vehicle: saline with Tween-80 100 % of control

CC(=O)Oc1cc2c(C)c3ccccc3cc2c2ccccc12
inactive: dose: 75.0 mg/kg/injection, schedule: Q01DX001 (ip), vehicle: Klucel (hydroxypropylcellulose) (HPC) 102 % of control | dose: 150.0 mg/kg/injection, schedule: Q01DX001 (ip), vehicle: Klucel (hydroxypropylcellulose) (HPC) 102 % of control | dose: 300.0 mg/kg/injection, schedule: Q01DX001 (ip), vehicle: Klucel (hydroxypropylcellulose) (HPC) 100 % of control

NC(=O)C1=C(C(=O)O)CCC1
inactive: dose: 25.0 mg/kg/injection, schedule: Q01DX009 (ip), vehicle: distilled water + Tween-80 99 % of control | dose: 50.0 mg/kg/injection, schedule: Q01DX009 (ip), vehicle: distilled water + Tween-80 100 % of control | dose: 100.0 mg/kg/injection, schedule: Q01DX009 (ip), vehicle: distilled water + Tween-80 98 % of control | dose: 200.0 mg/kg/injection, schedule: Q01DX009 (ip), vehicle: distilled water + Tween-80 96 % of control | dose: 400.0 mg/kg/injection, schedule: Q01DX009 (ip), vehicle: distilled water + Tween-80 92 % of control

CN=C(NC)c1ccc(NC(=O)c2cc(C(=O)Nc3ccc(C(=NC)NC)cc3)cc([N+](=O)[O-])c2)cc1
inactive: dose: 6.25 mg/kg/injection, schedule: Q01DX005 (ip), vehicle: Klucel (hydroxypropylcellulose) (HPC) 107 % of control | dose: 12.5 mg/kg/injection, schedule: Q01DX005 (ip), vehicle: Klucel (hydroxypropylcellulose) (HPC) 119 % of control

Cc1ccc(S(=O)(=O)N2CCC(N)=N2)cc1
inactive: dose: 50.0 mg/kg/injection, schedule: Q01DX005 (ip), vehicle: Klucel (hydroxypropylcellulose) (HPC) 93 % of control | dose: 100.0 mg/kg/injection, schedule: Q01DX005 (ip), vehicle: Klucel (hydroxypropylcellulose) (HPC) 98 % of control | dose: 200.0 mg/kg/injection, schedule: Q01DX005 (ip), vehicle: Klucel (hydroxypropylcellulose) (HPC) 90 % of control

C[C@@H]1C[C@H]2CC[C@H](O2)[C@H](C)C(=O)O[C@@H](C)C[C@@H]2CC[C@@H](O2)[C@@H](C)C(=O)O[C@H](C)C[C@H]2CC[C@H](O2)[C@H](C)C(=O)O[C@@H](C)C[C@@H]2CC[C@@H](O2)[C@@H](C)C(=O)O1
inactive: dose: 132.0 mg/kg/injection, schedule: Q01DX009 (ip), vehicle: saline with Tween-80 100 % of control | [1] 104 % of control | dose: 300.0 mg/kg/injection, schedule: Q01DX009 (ip), vehicle: saline with Tween-80 104 % of control

C/C(=N\OCC(O)CNCCSCc1ccccc1)c1ccccc1Cl (stereo not given)
inactive: dose: 30.0 mg/kg/injection, schedule: Q01DX005 (ip), vehicle: Klucel (hydroxypropylcellulose) (HPC) 97 % of control | [2] 91 % of control | [3] 100 % of control and 91 % of control

C[S+](C)CC[N+](C)(C)C
inactive: dose: 12.5 mg/kg/injection, schedule: Q01DX009 (ip), vehicle: water 104 % of control | dose: 25.0 mg/kg/injection, schedule: Q01DX009 (ip), vehicle: water 108 % of control | dose: 50.0 mg/kg/injection, schedule: Q01DX009 (ip), vehicle: water 110 % of control

C=CCOc1cc2c(cc1C(C)c1ccc(OCC)cc1)OCO2 (stereo not given)
inactive: [4] 100 % of control and 104 % of control | [5] 112 % of control and 91 % of control | dose: 200.0 mg/kg/injection, schedule: Q01DX005 (ip), vehicle: saline with Tween-80 122 % of control and 123 % of control

C[N+](C)(C)CCC(=O)c1ccccc1
inactive: dose: 12.5 mg/kg/injection, schedule: Q01DX009 (ip), vehicle: Klucel (hydroxypropylcellulose) (HPC) 99 % of control | dose: 25.0 mg/kg/injection, schedule: Q01DX009 (ip), vehicle: Klucel (hydroxypropylcellulose) (HPC) 96 % of control

O=C(O)c1ccc2c(=O)c(C(=O)O)c[nH]c2c1
inactive: dose: 50.0 mg/kg/injection, schedule: Q01DX009 (ip), vehicle: saline 100 % of control | dose: 100.0 mg/kg/injection, schedule: Q01DX009 (ip), vehicle: saline 96 % of control | dose: 200.0 mg/kg/injection, schedule: Q01DX009 (ip), vehicle: saline 103 % of control

COc1cccc(CCNC(=O)CCN2C(=O)CCC2=O)c1
inactive: [6] 105 % of control | [1] 100 % of control | [7] 110 % of control

O=c1[nH]oc2c1CCNC2
inactive: dose: 100.0 mg/kg/injection, schedule: Q04DX003 (ip), vehicle: saline 98 % of control | dose: 200.0 mg/kg/injection, schedule: Q04DX003 (ip), vehicle: saline 103 % of control

COC1(OC)CCN2OC(CO)CC21 (stereo not given)
inactive: dose: 25.0 mg/kg/injection, schedule: Q04DX003 (ip), vehicle: saline with Tween-80 103 % of control | dose: 50.0 mg/kg/injection, schedule: Q04DX003 (ip), vehicle: saline with Tween-80 100 % of control | dose: 100.0 mg/kg/injection, schedule: Q04DX003 (ip), vehicle: saline with Tween-80 100 % of control and 101 % of control

CN1Cc2c(cc(CN3CCCCC3)n2C)C(c2ccc(Br)cc2)C1 (stereo not given)
inactive: dose: 15.0 mg/kg/injection, schedule: Q01DX005 (ip), vehicle: saline with Tween-80 100 % of control | dose: 30.0 mg/kg/injection, schedule: Q01DX005 (ip), vehicle: saline with Tween-80 100 % of control | [8] 101 % of control

O=P1(NC23CC4CC(CC(C4)C2)C3)OC(CCl)=NC1c1ccc(C2N=C(CCl)OP2(=O)NC23CC4CC(CC(C4)C2)C3)cc1 (stereo not given)
inactive: [8] 98 % of control | [9] 98 % of control | [10] 98 % of control

c1ccc(-c2nc3ccccc3[nH]2)nc1
inactive: dose: 25.0 mg/kg/injection, schedule: Q04DX003 (ip), vehicle: Klucel (hydroxypropylcellulose) (HPC) 101 % of control | dose: 50.0 mg/kg/injection, schedule: Q04DX003 (ip), vehicle: Klucel (hydroxypropylcellulose) (HPC) 96 % of control | dose: 100.0 mg/kg/injection, schedule: Q01DX009 (ip), vehicle: Klucel (hydroxypropylcellulose) (HPC) 115 % of control | dose: 100.0 mg/kg/injection, schedule: Q04DX003 (ip), vehicle: Klucel (hydroxypropylcellulose) (HPC) 101 % of control | dose: 200.0 mg/kg/injection, schedule: Q01DX009 (ip), vehicle: Klucel (hydroxypropylcellulose) (HPC) 99 % of control | dose: 200.0 mg/kg/injection, schedule: Q04DX003 (ip), vehicle: Klucel (hydroxypropylcellulose) (HPC) 93 % of control | dose: 400.0 mg/kg/injection, schedule: Q01DX009 (ip), vehicle: Klucel (hydroxypropylcellulose) (HPC) 101 % of control

CC1C2C=CC1C(c1c3ccc(=O)cc-3oc3cc(O)ccc13)C2C(=O)O (stereo not given)
inactive: [8] 99 % of control | [9] 100 % of control | [10] 101 % of control

CCOC(=O)NCCF
inactive: dose: 0.78 mg/kg/injection, schedule: Q01DX009 (ip), vehicle: saline 96 % of control | dose: 1.56 mg/kg/injection, schedule: Q01DX009 (ip), vehicle: saline 101 % of control | dose: 3.12 mg/kg/injection, schedule: Q01DX009 (ip), vehicle: saline 101 % of control

CCOC(=O)c1cnc2cc3c(cc2c1Nc1ccccc1)OCO3
inactive: [2] 94 % of control | [3] 99 % of control | [11] 95 % of control

N#C/C(=C\c1ccccc1)c1ccc(Cl)cc1
inactive: [12] 105 % of control and 97 % of control | [6] 106 % of control and 91 % of control | [1] 113 % of control and 96 % of control | [7] 103 % of control and 97 % of control

O=C(c1ccc(OCC(O)CN2CCN(c3ccccc3)CC2)cc1)c1cc2ccccc2c2ccccc12 (stereo not given)
inactive: dose: 100.0 mg/kg/injection, schedule: Q04DX003 (ip), vehicle: alcohol 106 % of control | dose: 100.0 mg/kg/injection, schedule: Q04DX003 (ip), vehicle: other 109 % of control | dose: 200.0 mg/kg/injection, schedule: Q04DX003 (ip), vehicle: alcohol 120 % of control | dose: 200.0 mg/kg/injection, schedule: Q04DX003 (ip), vehicle: other 105 % of control

CCc1nc2c(Br)c3oc(CC)nc3c(C)c2o1
inactive: [2] 97 % of control | [3] 95 % of control | [11] 91 % of control

O=C1c2cccc3cc([N+](=O)[O-])cc(c23)C(=O)N1CCCN(CCO)CCO
inactive: dose: 25.0 mg/kg/injection, schedule: Q01DX005 (ip), vehicle: saline with Tween-80 105 % of control | [4] 107 % of control | [5] 108 % of control and 121 % of control

O=C(CN1CCCCC1)Nc1ccc(I)cc1
inactive: [12] 104 % of control | [6] 107 % of control | [1] 114 % of control
